Values after ≈ are worked out from the molar mass of the structure shown. Where two headings read alike, the source gives them in different places.
Experiments:
[1] = system: Escherichia coli ATCC 8739; test: Minimal inhibition concentration (MIC), microdilution method adapted from DIN EN ISO 20776-1:2006; type: cell-based; settings: for MIC: Escherichia coli
Excerpt: (§1) The antimicrobial activity of different substances was examined and compared to perillic acid in vitro using the microdilution method adapted from DIN EN ISO 20776-1:2006. Besides perillic acid and its sodium salt, other organic acids like levulinic acid, p-anisic acid, benzoic acid and sorbic acid as well as alkane-1,2-diols such as hexane-1,2-diol, octane-1,2-diol and decane-1,2-diol were studied. Additionally, the commonly used preservatives 2-phenoxyethanol, 2-phenylethanol and benzyl alcohol were investigated.
(§2) All experiments were done in 96-well plates in a final volume of 200 μL. Test solutions of the investigated compounds were prepared in 25 mM buffered water. The procedure was conducted as following: 4 μL of the particular stock solution were mixed with 196 μL culture medium containing a defined inoculum of the respective target strain. Sterile controls (not inoculated) and growth controls (buffer instead of compound added) were performed. All compound concentrations were tested in triplicate for several times. The following contamination germs were examined: Escherichia coli ATCC 8739, Pseudomonas aeruginosa ATCC 9027, Stapyhlococcus aureus ATCC®6538, Bacillus subtilis subsp. spizizenii ATCC®6633, Candida albicans ATCC®10231 and Aspergillus brasiliensis ATCC®16404. The strains were cultivated either in Mueller-Hinton II Bouillon (Escherichia coli, Pseudomonas aeruginosa, Staphylococcus aureus), in yeast peptone dextrose (Bacillus subtilis, Candida albicans) or in potato dextrose medium (Aspergillus brasiliensis). All culture media were buffered with 25 mM MES-buffer. For compound testing, the plates were incubated at 37° C. for Escherichia coli, Pseudomonas aeruginosa and Staphylococcus aureus, at 28° C. for Bacillus subtilis and Candida albicans, and at 25° C. for Aspergillus brasiliensis. Plates were evaluated after 24 h and 72 h, respectively. The minimal inhibitory concentration (MIC) is defined as the concentration where no microbial growth was observed after 24 h and 72 h incubation at the specified temperature.
(§3) MIC-values are given according to the following letter code.

[2] = system: Aspergillus brasiliensis ATCC®16404; test: Minimal inhibition concentration (MIC), microdilution method; type: cell-based; settings: for MIC: Aspergillus brasiliensis
Excerpt: as §1, §2, §3

[3] = system: Bacillus subtilis subsp. spizizenii ATCC®6633; test: as above; type: cell-based; settings: for MIC: Bacillus subtilis
Excerpt: as §1, §2, §3

[4] = system: Candida albicans ATCC®10231; test: as above; type: cell-based; settings: for MIC: Candida albicans
Excerpt: as §1, §2, §3

[5] = system: Pseudomonas aeruginosa ATCC 9027; test: as above; type: cell-based; settings: for MIC: Pseudomonas aeruginosa
Excerpt: as §1, §2, §3

[6] = system: Stapyhlococcus aureus ATCC®6538; test: as above; type: cell-based, Staphylococcus aureus; settings: for MIC: Staphylococcus aureus
Excerpt: as §1, §2, §3

[7] = system: Escherichia coli; test: Combination of substances with perillic acid: reduction of the MIC of perillic acid; type: cell-based; settings: test compound combined with perillic acid; experiments as in Example 1
Experimental: as §2
(§4) Activity of perillic acid was comparably low against Gram-negative bacteria. It was thus tested whether the respective MIC could be reduced by combination of perillic acid with selected substances.
(§5) Experiments were performed as described for Example 1 above. A reduction factor was determined, expressing the reduction of the MIC of perillic acid that was achievable by combination with the combination partner. For example, a reduction factor of 2 means that the MIC of perillic acid was reduced by a factor of 2 by combination of perillic acid with the respective activity enhancing substance.

[8] = system: Pseudomonas aeruginosa; test: as above; type: cell-based; settings: test compound combined with perillic acid; experiments as in Example 1
Experimental: as §2, §4, §5

[9] = system: Escherichia coli, Pseudomonas aeruginosa, Stapyhlococcus aureus, Candida albicans and Aspergillus brasiliensis; test: Conservation efficacy test according to DIN EN ISO 11930 in cosmetic formulation, all five test strains; type: cell-based; settings: cosmetic formulation (oil-water-emulsion), day 0 to day 28
Experimental: The composition of the formulations was in general as follows (ingredient amounts according to the FDA-code):
In order to confirm the activity against Gram-positive and Gram-negative bacteria, yeasts and moulds, conservation efficacy tests were performed according to DIN EN ISO 11930. The following classical contamination germs were examined: Escherichia coli (Ec in FIGS. 1 and 2) ATCC®8739, Pseudomonas aeruginosa (Pa in FIGS. 1 and 2) ATCC®9027, Stapyhlococcus aureus (Sa in FIGS. 1 and 2) ATCC®6538, Candida albicans (Ca in FIGS. 1 and 2) ATCC®10231 and Aspergillus brasiliensis (Ab in FIGS. 1 and 2) ATCC®16404. Media composition, incubation conditions and dilution procedures were all conducted according to the guidelines.
Data are presented as line graphs. […] The tested contamination germs are identified by different symbols as indicated in the diagrams with the following abbreviations: […]

[10] = ATCC8739, Mueller-Hinton II Bouillon, 25 mM MES-buffer, 37° C., no growth after 24 h and 72 h, read-out: MIC [A to D] Escherichia coli
[11] = ATCC16404, potato dextrose medium, 25 mM MES-buffer, 25° C., no growth after 24 h and 72 h, read-out: MIC [A to D] Aspergillus brasiliensis
[12] = ATCC6633, yeast peptone dextrose, 25 mM MES-buffer, 28° C., no growth after 24 h and 72 h, read-out: MIC [A to D] Bacillus subtilis
[13] = yeast peptone dextrose, 25 mM MES-buffer, 28° C., no growth after 24 h and 72 h
[14] = ATCC9027, Mueller-Hinton II Bouillon, 25 mM MES-buffer, 37° C., no growth after 24 h and 72 h, read-out: MIC [A to D] Pseudomonas aeruginosa
[15] = ATCC6538, Mueller-Hinton II Bouillon, 25 mM MES-buffer, 37° C., no growth after 24 h and 72 h, read-out: MIC [A to D] Staphylococcus aureus
[16] = ATCC10231, yeast peptone dextrose, 25 mM MES-buffer, 28° C., no growth after 24 h and 72 h, read-out: MIC [A to D] Candida albicans
[17] = Mueller-Hinton II Bouillon, 25 mM MES-buffer, 37° C., no growth after 24 h and 72 h
[18] = potato dextrose medium, 25 mM MES-buffer, 25° C., no growth after 24 h and 72 h

Row | MIC [1, 10] [µg/mL] | MIC [2, 11] [µg/mL] | MIC [A to D] Candida albicans [4, 13] | MIC [5, 14] [µg/mL] | Reduction factor (reduction of the MIC of perillic acid by combination with the test compound) Escherichia coli [7] | Reduction factor (reduction of the MIC of perillic acid by combination with the test compound) Pseudomonas aeruginosa [8] | MIC [A to D] Bacillus subtilis [3, 13] | MIC [A to D] Staphylococcus aureus [6, 17] | MIC [A to D] Escherichia coli [1, 17] | MIC [A to D] Pseudomonas aeruginosa [5, 17] | SMILES | also measured
1 | 1000 to 5000 (≈ 8.61 to 43.1 mM) | 1000 to 5000 (≈ 8.61 to 43.1 mM) | A (MIC>1% (w/v)) | 1000 to 5000 (≈ 8.61 to 43.1 mM) | 200 | 40 |  |  |  |  | CC(=O)CCC(=O)O [Levulinic acid] | MIC [3, 12]: 5000 to 10000 µg/mL (≈ 43.1 to 86.1 mM); MIC [6, 15]: 1000 to 5000 µg/mL (≈ 8.61 to 43.1 mM); criteria according to the guidelines for an adequate conservation (all five test strains) [9]: does not fulfill the criteria
2 | 1000 to 5000 (≈ 6.57 to 32.9 mM) | 1000 to 5000 (≈ 6.57 to 32.9 mM) |  | 1000 to 5000 (≈ 6.57 to 32.9 mM) |  |  |  |  |  |  | COc1ccc(C(=O)O)cc1 [p-Anisic acid] | MIC [3, 12]: 1000 to 5000 µg/mL (≈ 6.57 to 32.9 mM); MIC [4, 16]: 5000 to 10000 µg/mL (≈ 32.9 to 65.7 mM); MIC [6, 15]: 1000 to 5000 µg/mL (≈ 6.57 to 32.9 mM)
3 | 5000 to 10000 (≈ 42.3 to 84.6 mM) | 5000 to 10000 (≈ 42.3 to 84.6 mM) | A (MIC>1% (w/v)) | 5000 to 10000 (≈ 42.3 to 84.6 mM) |  |  | A (MIC>1% (w/v)) | A (MIC>1% (w/v)) |  |  | CCCCC(O)CO (stereo not shown) [Hexane-1,2-diol] | 
4 |  | 1000 to 5000 (≈ 7.24 to 36.2 mM) |  |  | 40 | 80 | D (MIC<0.1% (w/v)) | D (MIC<0.1% (w/v)) | D (MIC<0.1% (w/v)) | D (MIC<0.1% (w/v)) | O=C(O)c1ccccc1O [Salicylic acid] | MIC [4, 16]: 1000 to 5000 µg/mL (≈ 7.24 to 36.2 mM)
5 |  |  | D (MIC<0.1% (w/v)) |  |  |  | D (MIC<0.1% (w/v)) | D (MIC<0.1% (w/v)) | C (MIC=0.1-0.5% (w/v)) | B (MIC=0.5-1% (w/v)) | C=C(C)[C@@H]1CC=C(C(=O)O)CC1 [S-Perillic acid] | MIC [A to D] Aspergillus brasiliensis [2, 18]: D (MIC<0.1% (w/v))
6 |  |  | D (MIC<0.1% (w/v)) |  |  |  | D (MIC<0.1% (w/v)) | D (MIC<0.1% (w/v)) | C (MIC=0.1-0.5% (w/v)) | B (MIC=0.5-1% (w/v)) | C=C(C)C1CC=C(C(=O)[O-])CC1.[Na+] (stereo not shown) [Sodium perillate] | MIC [A to D] Aspergillus brasiliensis [2, 18]: D (MIC<0.1% (w/v))

Row | SMILES | MIC [1, 10] [µg/mL] | MIC [2, 11] [µg/mL] | MIC [A to D] Candida albicans [4, 13] | MIC [5, 14] [µg/mL] | Reduction factor (reduction of the MIC of perillic acid by combination with the test compound) Escherichia coli [7] | Reduction factor (reduction of the MIC of perillic acid by combination with the test compound) Pseudomonas aeruginosa [8] | MIC [A to D] Bacillus subtilis [3, 13] | MIC [A to D] Staphylococcus aureus [6, 17] | MIC [A to D] Escherichia coli [1, 17] | MIC [A to D] Pseudomonas aeruginosa [5, 17] | also measured
7 | OCCOc1ccccc1 [2-Phenoxyethanol, reference compound] |  |  |  |  | 30 | 20 |  |  |  |  | MIC ([1]; ATCC8739, read-out: MIC [A to D] Escherichia coli): 5000 to 10000 µg/mL (≈ 36.2 to 72.4 mM); MIC ([2]; ATCC16404, read-out: MIC [A to D] Aspergillus brasiliensis): 5000 to 10000 µg/mL (≈ 36.2 to 72.4 mM); MIC ([3]; ATCC6633, read-out: MIC [A to D] Bacillus subtilis): 5000 to 10000 µg/mL (≈ 36.2 to 72.4 mM); MIC ([4]; ATCC10231, read-out: MIC [A to D] Candida albicans): 5000 to 10000 µg/mL (≈ 36.2 to 72.4 mM); MIC ([5]; ATCC9027, read-out: MIC [A to D] Pseudomonas aeruginosa): 5000 to 10000 µg/mL (≈ 36.2 to 72.4 mM); MIC ([6]; ATCC6538, read-out: MIC [A to D] Staphylococcus aureus): 5000 to 10000 µg/mL (≈ 36.2 to 72.4 mM)
